# Read-outs that look alike come from different tables or passages of the source.
# Experiments:
# [1] = tested on: human oral keratinocyte cell line (OKF6); assay: MTT cell viability assay, OKF6; format: cell-based; conditions: OKF6, 48 h treatment
# Source text: (§1) Human prostate cancer cell line (PC3), human malignant melanoma cell line (A375), human liver hepatocellular cell line (HepG2) and human colon adenocarcinoma cell line (HT29) were purchased from American Type Culture Collection (ATCC, Manassas, VA). The human breast cancer cell line (MCF-7) was acquired from Cell Lines Service (300273; Eppelheim, Germany), human oral keratinocyte cell line (OKF6) cells and carcinoma-derived human oral keratinocyte cells (H413) (Sigma-aldrich, Saint Louis, MO) were received from Professor Ian Charles Paterson. MCF-7, A375, HT29 and HepG2 cells were grown in Dulbecco’s Modified Eagle Medium (DMEM, Life Technologies, Inc., Rockville, MD) supplemented with 10% heat-inactivated fetal bovine serum (FBS, Sigma-Aldrich, St. Louis, MO), 1% penicillin and streptomycin. PC3 cells were grown in Roswell Park Memorial Institute medium (RPMI) supplemented with 10% heat-inactivated fetal bovine serum (FBS, Sigma-Aldrich, St. Louis, MO), 1% penicillin and streptomycin. OKF6 cells were grown in Keratinocyte Serum-Free Medium (KSFM), supplemented with 10% heat-inactivated fetal bovine serum (FBS, Sigma-Aldrich, St. Louis, MO), 1% penicillin and streptomycin. H413 cells were grown in Dulbecco's Modified Eagle Medium/Ham's F-12 (DMEM/F12) supplemented with 10% heat-inactivated fetal bovine serum (FBS, Sigma-Aldrich, St. Louis, MO), 1% penicillin and streptomycin. Cells were cultured in tissue culture flasks (Corning, USA) and were kept in an incubator at 37°C in a humidified atmosphere with 5% CO2. For experimental purposes, cells in exponential growth phase (approximately 70–80% confluency) were used.
# (§2) The influence of the solvents was determined by MTT assay (Mosmann, 1983). MCF-7, A375, HT29, HepG2, PC3, OKF6 and H413 cells were treated for 48 h. On the first day, 1.0 × 10^4 cells were seeded into a 96-well plate for 24 h incubation assay. The cells were incubated overnight at 37°C in 5% CO2. On the next day, the cells were treated with a two-fold dilution series of six concentrations of the solvents, and then incubated at 37°C in 5% CO2 for 48 h. MTT solution (4,5-dimethylthiazol-2-yl-2,5-diphenyltetrazoliumbromide) was added at 2 mg/mL, and after 2 h of incubation at 37°C in 5% CO2, DMSO was added to dissolve the formazan crystals. The plates were then read in Chameleon multitechnology microplate reader (Hidex, Turku, Finland) at 570 nm absorbance. The cell viability percentage after exposure to the solvents for 48 h was calculated by the previously described method. The ratio of the absorbance of treated cells to the absorbance of DMSO-treated control cells was determined as cell viability (percentage).
# [2] = tested on: human malignant melanoma cell line (A375); assay: MTT cell viability assay, A375; format: cell-based
# Source text: as §1, §2
# [3] = tested on: human prostate cancer cell line (PC3); assay: MTT cell viability assay, PC3; format: cell-based; conditions: PC3, 48 h treatment
# Source text: as §1, §2
# [4] = tested on: human colon adenocarcinoma cell line (HT29); assay: MTT cell viability assay, HT29; format: cell-based
# Source text: as §1, §2
# [5] = tested on: carcinoma-derived human oral keratinocyte cells (H413); assay: MTT cell viability assay, H413; format: cell-based; conditions: H413, 48 h treatment
# Source text: as §1, §2
# [6] = tested on: human liver hepatocellular cell line (HepG2); assay: MTT cell viability assay, HepG2; format: cell-based; conditions: HepG2, 48 h treatment
# Source text: as §1, §2
# [7] = tested on: human breast cancer cell line (MCF-7); assay: MTT cell viability assay, MCF-7; format: cell-based
# Source text: as §1, §2
# [8] = set-up: method as in PMID 18512987, PMID 19661306; conditions: previously reported; cited from earlier work
# [9] = Acute toxicity (LD50) in ICR mice; format: in vivo; conditions: mouse, in vivo, oral, mortality within 14 days
# Procedure: (§3) The acute toxicity of the compounds was evaluated using six Imprinting Control Region (ICR) mice per groups at 8 to 12 weeks of age, with an average body weight of 25.6 g. The animals were assigned equally into 4 groups labeled as vehicle (dH2O), high dose (20 g/kg), medium dose (10 g/kg) and low dose (5 g/kg) of the compounds. Prior to administration, the animals were fasted (food but not water) overnight and for 3 to 4 h after compounds administration to eliminate any food inside the gastrointestinal tract that might complicate absorption of the test substance. […] Animals were euthanized by CO2 asphyxiation on 15th day, and serum biochemical and histological (liver and kidney) parameters were determined following the standard method. The mortality of the mice were recorded within 14 days and used to calculate the LD50 for each compound. The mice used were housed in specific pathogen free facility at the University of Malaya. This work was designed to minimize animal suffering and number of animals used, and has been approved by the Faculty of Medicine Animal Care and Use Committee (FOMIACUC, Approval No: 2014-05-07/PHAR/R/CYL) at University of Malaya. The work was reported according to ARRIVE guideline.
# [10] = tested on: ICR mice; assay: Acute toxicity (LD50) in ICR mice; format: in vivo; conditions: mortality within 14 days
# Procedure: as §3
# [11] = ORAC antioxidant activity assay
# Procedure: Chemicals. Fluorescein sodium salt, AAPH (2,2′-Azobis(2-methylpropionamidine) dihydrochloride), quercetin dehydrate and trolox ((±)-6-Hydroxy-2,5,7,8-tetramethylchromane-2-carboxylic acid) were purchased from Sigma-Aldrich.
# ORAC assay. ORAC (oxygen radical […]) assay was done based on procedures described previously with slight modifications. Compounds were diluted to a final concentration of 100μg/mL, with total reaction volume of 200μL. The assay was performed in a 96-well black microplate, with 25μL of samples, standard (trolox), blank (solvent/PBS) or positive control (quercetin). Subsequently, 150μL of working fluorescein solution was added to each well of assay plate. The plate was incubated at 37°C for at least 5 min. 25μL of AAPH working solution was then added to the wells, making up a total volume of 200μL. Fluorescence was recorded with excitation wavelength of 485nm and emission wavelength of 538nm. […] The values were expressed as trolox equivalent (TE).
# [12] = tested on: HepG2; conditions: on HepG2; cited from earlier work
Compound,IC50 [1] [µg/mL],"IC50 ([2]; A375, 48 h treatment) [µg/mL]",IC50 [3] [µg/mL],"IC50 ([4]; HT29, 48 h treatment) [µg/mL]",IC50 [5] [µg/mL],IC50 [6] [µg/mL],"IC50 ([7]; MCF-7, 48 h treatment) [µg/mL]",also measured
"C[N+](C)(C)CCO.[Cl-] [Solvent 14, choline chloride]",21.74 ± 1.04,12.75 ± 1.23,10.18 ± 0.95,8.939 ± 1.43,21.49 ± 0.57,14.60 ± 2.53,12.23 ± 0.39,
4-Hydroxy tamoxifen,,,,,,,,selectivity index [8]: less than 2
"C[N+](C)(C)CCO.[Cl-] [Solvent 6, choline chloride]",24.58 ± 2.81,8.64 ± 1.75,13.60 ± 2.94,11.79 ± 0.43,21.84 ± 2.65,12.69 ± 1.63,13.05 ± 2.09,
"OCCOCCOCCO [Pure TEG, triethylene glycol]",,,,,,,,LD50 at 14 days [9]: 17000 ± 2040 mg/kg
"OCCOCCOCCO [Solvent 15, triethylene glycol]",,,,,,,,"IC50 ([1]; Homo sapiens, read-out: IC50): 29.8 ± 1.45 µg/mL; IC50 ([2]; Homo sapiens, A-375, A375, 48 h treatment, read-out: IC50): 14.6 ± 0.64 µg/mL; IC50 ([3]; Homo sapiens, read-out: IC50): 23.1 ± 1.32 µg/mL; IC50 ([4]; Homo sapiens, HT-29, HT29, 48 h treatment, read-out: IC50): 20.2 ± 2.75 µg/mL; IC50 ([5]; Homo sapiens, Keratinocyte, read-out: IC50): 32.1 ± 3.1 µg/mL; IC50 ([6]; Homo sapiens, read-out: IC50): 33.9 ± 4.94 µg/mL; IC50 ([7]; Homo sapiens, MCF7, MCF-7, 48 h treatment, read-out: IC50): 18.3 ± 2.15 µg/mL"
CC/C(=C(/CCN1CCCCC1)c1ccc(O)cc1)c1ccc(O)cc1 [piperidinyl-diethylstilbestrol],,,,,,,,selectivity index [8]: less than 2
"OCC(O)CO [Pure Gl, glycerine]",,,,,,,,LD50 at 14 days [9]: 20600 ± 2160 mg/kg
"OCC(O)CO [Solvent 3, glycerine]",129.31 ± 8.23,67.65 ± 6.83,42.38 ± 3.96,63.80 ± 7.23,101.02 ± 18.54,68.85 ± 11.74,74.73 ± 6.67,
"C[N+](C)(C)CCO.[Cl-] [Solvent 10, choline chloride]",32.49 ± 3.41,10.54 ± 0.34,28.88 ± 2.64,18.75 ± 1.65,38.41 ± 4.03,25.99 ± 1.85,12.51 ± 0.71,
"OCCO [Solvent 7, ethylene glycol]",75.62 ± 6.33,40.59 ± 5.27,32.48 ± 1.06,43.72 ± 3.97,62.29 ± 8.94,44.33 ± 5.86,53.91 ± 6.17,
"OCCO [Pure EG, ethylene glycol]",,,,,,,,LD50 [10]: 9710 ± 1950 mg/kg
"NC(N)=O [Pure U, urea]",,,,,,,,LD50 [10]: >20000 mg/kg
"NC(N)=O [Solvent 11, urea]",28.22 ± 1.05,11.21 ± 1.38,23.09 ± 5.22,13.93 ± 2.16,20.22 ± 1.69,24.23 ± 4.02,,
"O=c1c(O)c(-c2ccc(O)c(O)c2)oc2cc(O)cc(O)c12 [Quercetin, quercetin dehydrate]",,,,,,,,net AUC ([11]; compounds at 100μg/mL): 6353346; mM of Trolox per 100μg/mL ([11]; trolox equivalent): 0.02141 mM of Trolox per 100μg/mL; μM of Trolox per 100μg/mL ([11]; trolox equivalent): 21.411 μM of Trolox per 100μg/mL
"CCCCCCCCCC[N+](C)(C)CCCCCCCCCC [[DDA][Sac], didecyldimethylammonium saccharinate]",,,,,,,,IC50 [12]: 4.8 µM
C[C@@]12CCC[C@]3(C)c4cc5c(O)ccc(O)c5cc4C(=O)[C@](O)(OC1)[C@H]23 [alisiaquinol],,,,,,,,selectivity index [8]: less than 2
"C[N+](C)(C)CCO.[Cl-] [Solvent 2, choline chloride]",26.53 ± 1.97,7.584 ± 2.31,11.94 ± 1.35,13.41 ± 1.73,19.61 ± 4.19,14.26 ± 1.43,8.95 ± 0.98,

# — paper PMC4332636, “In Vitro and In Vivo Toxicity Profiling of Ammonium-Based Deep Eutectic Solvents” (PLoS ONE, 2015)
